# Tested on: embryonic chick myocardial cells
# Format: cell-based
Compound,"PSD ratio (PSD after agent ÷ PSD before agent), modulation function of the action potential","PSD modulation function of the action potential (additional data, concentration not given)"
CNC[C@H](O)c1ccc(O)c(O)c1 [Epinephrine],enhanced the power of the AP across a 2 kHz bandwidth with a slight bandpass effect observed,
CC[N+](CC)(CC)CC(=O)Nc1c(C)cccc1C.[Br-] [QX-314],,"modulation function similar to that of TTX, but with additional attenuation at lower frequencies"
NC1=N[C@H](O)[C@H]2[C@H]3O[C@]4(O)O[C@@H]([C@@H](O)[C@@]2(N1)[C@@H]4O)[C@]3(O)CO [Tetrodotoxin],low pass filter effect that clearly reduced the high frequency components of the AP,
